Laboratory results as given in US10208056B2, “Condensed tricyclic compounds as protein kinase inhibitors” (FUNDACIÓN DEL SECTOR PÚBLICO ESTATAL CENTRO NACIONAL DE …, priority 2015, dated 2019).
Like-named read-outs stand apart in the source and are kept apart here.

Tests used:
[1] = target: T1, intracellular HASPIN (Homo sapiens (Human), UniProt Q8TF76); assay: Endogenous phosphoH3 inhibition in SW620 cells growing in 10% FBS; type: cell-based; conditions: semiquantitative, read-out: SW620 pH3(T3)
Protocol: (§1) Endogenous phosphoH3 inhibition can be screened in cells growing in 10% FBS. Cells are plated as described before and treated for 8 h with compounds as described before. Then cells are lysated and phospho H3 evaluated as described before. The percentage of phosphorylated H3 vs total H3 in cells treated with DMSO is taken as hundred percent of phosphorylation. The percentage of H3 phosphorylation is finally plotted against concentration for each compound and EC50s for intracellular HASPIN inhibition are calculated using ActivityBase from IDBS.

[2] = target: CDK19/Cyclin C (Homo sapiens (Human), UniProt Q9BWU1); assay: CDK19/Cyclin C binding assay (LanthaScreen Eu-Kinase Binding Assay); conditions: read-out: CDK19-CYCC IC50
How it was run: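 LanthaScreen TR-FRET tracer-displacement format with 2 nM Cdk19-Cyclin C, 20 nM tracer and 2 nM Eu-anti-GST antibody. The buffer was 50 mM HEPES pH 7.5, 10 mM MgCl2, 1 mM EGTA, 0.01% Brij-35, with 1% DMSO final. Compounds were tested as 1:3 serial dilutions and incubated for 60 min at 25 °C.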

[3] = target: Haspin kinase (Homo sapiens (Human), UniProt Q8TF76); assay: Haspin kinase assay (ADP-Glo); type: biochemical; conditions: ATP 150 μM
How it was run: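 Compounds in 1:3 serial dilutions (1% DMSO final) were incubated 60 min at 30 °C with 20 nM recombinant GST-Haspin kinase domain and 150 μM ATP, without substrate, in pH 7.4 HEPES/MgCl2 buffer. ADP formed was read by luciferase luminescence and normalized to uninhibited enzyme to give % inhibition.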

[4] = test system: MDA-MB-231; assay: In vitro cell proliferation assay (CellTiter-Glo), MDA-MB-231; type: cell-based; conditions: growth inhibition, semiquantitative, read-out: GI50 MDA-MB-231
Protocol: (§2) The in vitro potency of the compounds was measured by the cell proliferation assay CellTiter-Glo® Luminescent Cell Viability Assay, commercially available from Promega Corp., Madison, Wis. This homogeneous assay method is based on the recombinant expression of Coleoptera luciferase (U.S. Pat. No. 5,583,024; U.S. Pat. No. 5,674,713; U.S. Pat. No. 5,700,670) and determines the number of viable cells in culture based on quantitation of the ATP present, an indicator of metabolically active cells (Crouch et al (1993) J. Immunol. Meth. 160:81-88; U.S. Pat. No. 6,602,677). The CellTiterGlo® Assay was conducted […] it amenable to automated high throughput screening (HTS) (Cree et al (1995) AntiCancer Drugs 6:398-404).
(§3) The homogeneous assay procedure involves adding the single reagent (CellTiter-Glo® Reagent) directly to cells cultured in serum-supplemented medium. Cell washing, removal of medium and multiple pipetting steps are not required. The system detects as few as 15 cells/well in a 96-well format in 10 minutes after adding reagent and mixing.
(§4) The homogeneous “add-mix-measure” format results in cell lysis and generation of a luminescent signal proportional to the amount of ATP present. The amount of ATP is directly proportional to the number of cells present in culture. The CellTiter-Glo® Assay generates a “glow-type” luminescent signal, produced by the luciferase reaction, which has a half-life generally greater than five hours, depending on cell type and medium used. Viable cells are reflected in relative luminescence units (RLU). The substrate, Beetle Luciferin, is oxidatively decarboxylated by recombinant firefly luciferase with concomitant conversion of ATP to AMP and generation of photons. The extended half-life eliminates the need to use reagent injectors and provides flexibility for continuous or batch mode processing of multiple plates. This cell proliferation assay can be used with various multiwell formats, e.g. 96 or 384 well format. Data can be recorded by luminometer or CCD camera imaging device. The luminescence output is presented as relative light units (RLU), measured over time.

[5] = target: CDK8/Cyclin C (Homo sapiens (Human), UniProt P49336); assay: CDK8/Cyclin C binding assay (LanthaScreen Eu-Kinase Binding Assay); conditions: binding assay
Protocol: The enzyme has been purchase from Invitrogen (PV4402) as a dimer of full-length His-tagged recombinant human proteins.
Assays were performed in 384-well plates. The final read out was generated using an EnVision plate reader (Perkin-Elmer).

[6] = target: T2, intracellular CDK8 (Homo sapiens (Human), UniProt P49336); assay: Endogenous phosphoSTAT1 inhibition in SW620 cells growing in 10% FBS; type: cell-based; conditions: semiquantitative, read-out: SW620 P-STAT1(S727)
Protocol: as §1, with “Endogenous phosphoSTAT1” for “Endogenous phosphoH3”, “phospho STAT1 is” for “phospho H3”, “phosphorylated STAT1” for “phosphorylated H3”, “total STAT1” for “total H3”, “of STAT1” for “of H3”, “intracellular CDK8” for “intracellular HASPIN”

[7] = test system: SW620; assay: In vitro cell proliferation assay (CellTiter-Glo), SW620; type: cell-based, human; conditions: growth inhibition, semiquantitative, read-out: GI50 SW620
Protocol: as §2, §3, §4

[8] = test system: MV4:11; assay: In vitro cell proliferation assay (CellTiter-Glo), MV4:11; type: cell-based; conditions: growth inhibition, semiquantitative, read-out: GI50 MV4:11
Protocol: as §2, §3, §4

[9] = test system: Molm13; assay: In vitro cell proliferation assay (CellTiter-Glo), Molm13; type: cell-based; conditions: growth inhibition, semiquantitative, read-out: GI50 Molm13
Protocol: as §2, §3, §4

[10] = target: T2, intracellular CDK8; assay: Cellular CDK8 inhibition assay, western blot P-STAT1 (S727) in IFN-γ treated SW620 cells; type: cell-based; conditions: SW620, IFNγ treated, semiquantitative; read-out: SW620 P-STAT1(S727) w IFNγ
Protocol: Compounds can be screened for their ability to inhibit intracellular CDK8 using a western blot assay to detect phosphorylation of the CDK8 substrate STAT1 (S727) in IFN-γ treated cells. SW620 cells are plated at 1*10^6 cells per well in 6-well plates (Solmeglas 13118) in RPMI media (Sigma-Aldrich R6504) supplemented with 10% foetal bovine serum (Sigma-Aldrich F7524), Penicillin/Streptomycin solution diluted 1:100 (Gibco 15070-063), and fungizone (Gibco, 15290-018), and allowed to adhere overnight at 37° C. in 5% CO2. Compounds are then added to the cell media from a final concentration of 10 μM in 10-fold serial dilutions and the cells are incubated at 37° C. in 5% CO2. After 1 hour, IFNγ (R&D systems Ref. RYD-285-IF-100) is added to a final concentration of […]. After 3 hours of treatment with IFNγ, the cells are washed in PBS, lysed adding 100 μl of protein lysis buffer (62.5 mM Tris pH 6.8 al 6.25%, 2% SDS y 10% glycerol) incubation 10 minutes at room temperature and heating at 95° C. 10 min. The protein content of the lysates is determined by DC protein assay (Biorad, Ref. 5000116). The proteins are resolved by SDS-PAGE and transferred to nitrocellulose membrane (VWR International eurolab, Ref. 732-4007). The membranes are incubated overnight at 4° C. with antibodies specific for total STAT1 (BD Transduction laboratory #610115), phosphoserine-727 STAT1 (Cell Signaling Ref. 9177) they are washed and then incubated with IRDye800 conjugated anti-mouse (Pierce/Cultek, 35521) and Alexa Fluor 680 goat anti-rabbit IgG secondary antibodies (Invitrogen, A21076). The bands are visualized and quantified using an Odyssey infrared imaging system (Li-Cor Biosciences). The percentage of phosphorylated STAT1 vs total STAT1 in cells treated with IFNγ is taken as hundred percent of phosphorylation. The percentage of STAT1 phosphorylation is finally plotted against concentration for each compound and EC50s for intracellular CDK8 inhibition are calculated using ActivityBase from IDBS.

[11] = target: T1, intracellular HASPIN; assay: Cellular HASPIN inhibition assay, western blot phospho H3T3 in synchronized SW620 cells; type: cell-based; conditions: semiquantitative, read-out: SW620 PH3(T3) in synchronized cells
Protocol: Compounds can be screened for their ability to inhibit intracellular HASPIN using a western blot assay to detect phosphorylation of the HASPIN substrate H3T3 in synchronized cells. SW620 cells are plated at 200000 cells per well in 6-well plates (Solmeglas 13118) in RPMI media (Sigma-Aldrich R6504) supplemented with 10% foetal bovine serum (Sigma-Aldrich F7524), Penicillin/Streptomycin solution diluted 1:100 (Gibco 15070-063), and fungizone (Gibco, 15290-018), and allowed to adhere overnight at 37° C. in 5% CO2. Cells are then treated 16 h hours with Nocadazole (Sigma-Aldrich M1404) at 250 ng/ml to arrest them in mitosis. Proteasoma inhibitor MG132 (Sigma-Aldrich C2211) is added to a final concentration of […] to keep cells arrested in mitosis. Compounds are then added to the cell media from a final concentration of 10 μM in 10-fold serial dilutions and the cells are incubated at 37° C. in 5% CO2. After 1 hour and 30 minutes of treatment with the compounds, the cells are washed in PBS, lysed adding 100 μl of protein lysis buffer (62.5 mM Tris pH 6.8 al 6.25%, 2% SDS y 10% glycerol) incubation 10 minutes at room temperature and heating at 95° C. 10 min. The protein content of the lysates is determined by DC protein assay (Biorad, Ref. 5000116). The proteins are resolved by SDS-PAGE and transferred to nitrocellulose membrane (VWR International eurolab, Ref. 732-4007). The membranes are incubated overnight at 4° C. with antibodies specific for total H3 (Millipore #07424), phosphothreonine-3 H3 (Cell Signaling Ref. 14269) they are washed and then incubated with IRDye800 conjugated anti-mouse (Pierce/Cultek, 35521) and Alexa Fluor 680 goat anti-rabbit IgG secondary antibodies (Invitrogen, A21076). The bands are visualized and quantified using an Odyssey infrared imaging system (Li-Cor Biosciences). The percentage of phosphorylated H3 vs total H3 in synchronized cells is taken as hundred percent of phosphorylation. The percentage of H3 phosphorylation is finally plotted against concentration for each compound and EC50s for intracellular HASPIN inhibition are calculated using ActivityBase from IDBS.

Haspin kinase, sequence (Q8TF76 484-798): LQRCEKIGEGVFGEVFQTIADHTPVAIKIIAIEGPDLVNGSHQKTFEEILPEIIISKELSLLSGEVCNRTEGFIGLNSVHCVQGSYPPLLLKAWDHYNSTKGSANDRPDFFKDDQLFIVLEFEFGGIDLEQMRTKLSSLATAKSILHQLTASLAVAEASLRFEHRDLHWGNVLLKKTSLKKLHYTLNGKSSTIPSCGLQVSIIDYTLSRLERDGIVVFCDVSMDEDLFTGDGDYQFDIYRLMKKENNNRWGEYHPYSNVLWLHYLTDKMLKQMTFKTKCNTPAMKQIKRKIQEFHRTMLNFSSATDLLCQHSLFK
T2 sequence (P49336 whole entry): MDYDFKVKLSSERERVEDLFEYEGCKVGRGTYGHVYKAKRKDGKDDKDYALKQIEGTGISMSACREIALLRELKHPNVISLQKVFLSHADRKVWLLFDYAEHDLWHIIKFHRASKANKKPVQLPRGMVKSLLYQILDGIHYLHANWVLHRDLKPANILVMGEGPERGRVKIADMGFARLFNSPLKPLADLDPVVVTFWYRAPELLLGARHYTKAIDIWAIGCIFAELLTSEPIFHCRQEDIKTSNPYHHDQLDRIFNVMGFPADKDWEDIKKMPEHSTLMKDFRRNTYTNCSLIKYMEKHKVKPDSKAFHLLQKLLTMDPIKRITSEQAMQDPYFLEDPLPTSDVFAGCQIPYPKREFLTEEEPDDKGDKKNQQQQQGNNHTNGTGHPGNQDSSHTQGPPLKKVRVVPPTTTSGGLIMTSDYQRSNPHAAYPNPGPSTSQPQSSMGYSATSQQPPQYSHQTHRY
T2 sequence (P24863 whole entry partner): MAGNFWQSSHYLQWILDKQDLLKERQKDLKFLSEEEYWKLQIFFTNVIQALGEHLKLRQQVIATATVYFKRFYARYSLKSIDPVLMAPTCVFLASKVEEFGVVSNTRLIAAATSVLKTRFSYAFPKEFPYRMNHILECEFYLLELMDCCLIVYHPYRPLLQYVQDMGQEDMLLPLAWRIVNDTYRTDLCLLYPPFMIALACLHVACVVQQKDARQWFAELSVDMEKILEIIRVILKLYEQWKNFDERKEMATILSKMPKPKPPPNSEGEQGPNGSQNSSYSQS
T2 sequence (Q93074 whole entry partner): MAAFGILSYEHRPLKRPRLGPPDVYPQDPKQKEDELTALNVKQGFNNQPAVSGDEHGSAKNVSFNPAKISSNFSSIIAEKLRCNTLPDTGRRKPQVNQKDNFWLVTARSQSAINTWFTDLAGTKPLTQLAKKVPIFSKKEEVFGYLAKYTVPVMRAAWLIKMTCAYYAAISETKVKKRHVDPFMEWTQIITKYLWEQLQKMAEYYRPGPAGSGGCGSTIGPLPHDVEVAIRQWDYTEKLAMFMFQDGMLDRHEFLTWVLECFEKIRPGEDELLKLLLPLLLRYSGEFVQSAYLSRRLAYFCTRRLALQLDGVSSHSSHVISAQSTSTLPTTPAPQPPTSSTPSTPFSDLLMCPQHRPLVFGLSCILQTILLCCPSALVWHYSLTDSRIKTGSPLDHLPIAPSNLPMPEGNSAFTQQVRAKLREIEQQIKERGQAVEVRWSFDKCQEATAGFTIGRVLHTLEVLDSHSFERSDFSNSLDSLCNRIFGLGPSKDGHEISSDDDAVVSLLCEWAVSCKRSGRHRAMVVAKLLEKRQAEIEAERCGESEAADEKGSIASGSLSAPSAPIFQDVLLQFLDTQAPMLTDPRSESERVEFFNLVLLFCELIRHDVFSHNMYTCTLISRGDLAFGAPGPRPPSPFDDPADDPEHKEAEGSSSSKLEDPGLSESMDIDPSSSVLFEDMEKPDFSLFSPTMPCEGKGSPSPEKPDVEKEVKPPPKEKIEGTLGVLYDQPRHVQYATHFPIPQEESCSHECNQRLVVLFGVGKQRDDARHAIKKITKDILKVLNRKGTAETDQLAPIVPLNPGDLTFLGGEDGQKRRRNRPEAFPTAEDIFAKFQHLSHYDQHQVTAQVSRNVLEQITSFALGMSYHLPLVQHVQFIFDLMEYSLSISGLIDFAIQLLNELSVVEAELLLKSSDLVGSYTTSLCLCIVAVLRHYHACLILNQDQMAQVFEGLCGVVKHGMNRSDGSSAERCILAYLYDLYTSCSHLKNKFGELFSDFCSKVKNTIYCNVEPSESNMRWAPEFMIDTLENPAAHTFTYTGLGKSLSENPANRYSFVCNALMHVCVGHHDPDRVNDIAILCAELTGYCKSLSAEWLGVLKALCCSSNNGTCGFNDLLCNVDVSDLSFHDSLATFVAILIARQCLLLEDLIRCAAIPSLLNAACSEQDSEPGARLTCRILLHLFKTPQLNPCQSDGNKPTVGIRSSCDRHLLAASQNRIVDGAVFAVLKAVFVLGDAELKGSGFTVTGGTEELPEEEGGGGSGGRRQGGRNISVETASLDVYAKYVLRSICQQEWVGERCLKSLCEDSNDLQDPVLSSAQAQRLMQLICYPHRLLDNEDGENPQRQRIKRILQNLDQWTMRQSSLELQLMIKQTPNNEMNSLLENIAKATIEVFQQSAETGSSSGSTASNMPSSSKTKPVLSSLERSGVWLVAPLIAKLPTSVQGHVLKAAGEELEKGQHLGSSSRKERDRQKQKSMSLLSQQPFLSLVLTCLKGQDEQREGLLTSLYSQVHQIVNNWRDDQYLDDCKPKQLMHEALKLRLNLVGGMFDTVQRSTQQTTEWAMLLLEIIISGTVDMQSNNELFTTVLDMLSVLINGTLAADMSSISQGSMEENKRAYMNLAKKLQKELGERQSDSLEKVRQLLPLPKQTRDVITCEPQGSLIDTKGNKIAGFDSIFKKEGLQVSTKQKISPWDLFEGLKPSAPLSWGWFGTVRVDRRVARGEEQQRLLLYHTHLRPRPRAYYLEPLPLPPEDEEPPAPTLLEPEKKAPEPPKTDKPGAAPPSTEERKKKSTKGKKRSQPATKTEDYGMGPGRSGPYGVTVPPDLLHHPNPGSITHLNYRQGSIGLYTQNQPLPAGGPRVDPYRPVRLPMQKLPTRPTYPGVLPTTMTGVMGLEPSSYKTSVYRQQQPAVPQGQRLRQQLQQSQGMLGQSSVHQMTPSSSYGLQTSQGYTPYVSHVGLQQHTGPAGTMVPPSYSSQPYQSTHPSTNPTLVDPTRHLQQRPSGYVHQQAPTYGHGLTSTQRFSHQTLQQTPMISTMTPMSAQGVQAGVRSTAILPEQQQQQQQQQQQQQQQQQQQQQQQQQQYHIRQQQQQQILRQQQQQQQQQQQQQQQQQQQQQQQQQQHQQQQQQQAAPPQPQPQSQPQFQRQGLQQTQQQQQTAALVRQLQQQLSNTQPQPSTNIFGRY
CDK8/Cyclin C, sequence (P49336 whole entry): as the sequence (P49336 whole entry) above
CDK8/Cyclin C, sequence (P24863 whole entry partner): as the sequence (P24863 whole entry partner) above
T1 sequence (Q8TF76 whole entry): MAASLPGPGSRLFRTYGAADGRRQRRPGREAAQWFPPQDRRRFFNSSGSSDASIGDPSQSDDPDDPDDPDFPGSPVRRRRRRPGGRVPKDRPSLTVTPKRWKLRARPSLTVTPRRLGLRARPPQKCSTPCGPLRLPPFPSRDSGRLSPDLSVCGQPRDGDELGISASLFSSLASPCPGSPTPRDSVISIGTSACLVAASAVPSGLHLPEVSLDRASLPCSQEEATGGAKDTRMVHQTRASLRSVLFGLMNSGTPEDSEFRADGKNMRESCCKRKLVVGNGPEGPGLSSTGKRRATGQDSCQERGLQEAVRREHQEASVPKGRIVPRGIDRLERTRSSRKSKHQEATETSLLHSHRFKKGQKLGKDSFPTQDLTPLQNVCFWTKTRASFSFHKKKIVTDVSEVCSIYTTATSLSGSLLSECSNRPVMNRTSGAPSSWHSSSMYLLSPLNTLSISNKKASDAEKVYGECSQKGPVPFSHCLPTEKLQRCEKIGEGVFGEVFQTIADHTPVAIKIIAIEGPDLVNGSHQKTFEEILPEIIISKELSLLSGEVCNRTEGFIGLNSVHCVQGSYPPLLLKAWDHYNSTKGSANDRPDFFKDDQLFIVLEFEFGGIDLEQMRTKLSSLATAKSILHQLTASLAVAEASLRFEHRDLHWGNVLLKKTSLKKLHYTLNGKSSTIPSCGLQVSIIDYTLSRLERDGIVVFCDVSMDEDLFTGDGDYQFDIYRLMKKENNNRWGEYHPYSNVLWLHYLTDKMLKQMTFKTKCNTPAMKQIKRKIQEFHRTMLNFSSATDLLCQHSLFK
CDK19/Cyclin C, sequence (Q9BWU1 whole entry): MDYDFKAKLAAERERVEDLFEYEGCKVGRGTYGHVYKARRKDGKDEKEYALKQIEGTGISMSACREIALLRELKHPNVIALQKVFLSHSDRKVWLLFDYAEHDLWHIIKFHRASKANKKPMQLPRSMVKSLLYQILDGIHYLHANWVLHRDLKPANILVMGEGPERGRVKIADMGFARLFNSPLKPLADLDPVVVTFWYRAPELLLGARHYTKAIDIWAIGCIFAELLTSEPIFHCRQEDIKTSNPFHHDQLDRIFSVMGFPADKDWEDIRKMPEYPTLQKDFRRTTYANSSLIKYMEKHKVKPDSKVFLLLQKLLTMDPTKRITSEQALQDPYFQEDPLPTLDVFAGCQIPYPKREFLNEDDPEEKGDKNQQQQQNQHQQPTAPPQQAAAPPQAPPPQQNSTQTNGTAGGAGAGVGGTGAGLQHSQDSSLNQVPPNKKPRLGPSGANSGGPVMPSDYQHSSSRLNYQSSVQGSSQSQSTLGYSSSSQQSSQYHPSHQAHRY
CDK19/Cyclin C, sequence (P24863 whole entry partner): as the sequence (P24863 whole entry partner) above

Row | EC50 [1] [µM] | IC50 [2] [µM] | IC50 [3] [µM] | GI50 [4] [µM] | IC50 [5] [µM] | EC50 [6] [µM] | GI50 [7] [µM] | GI50 [8] [µM] | GI50 [9] [µM] | EC50 [10] [µM] | EC50 [11] [µM] | GI50 ([4]; Homo sapiens, MDA-MB-231) [µM] | GI50 ([7]; Homo sapiens, SW-620) [µM] | GI50 ([8]; Homo sapiens, MV4-11) [µM] | GI50 ([9]; Homo sapiens, MOLM-13) [µM] | SMILES
1 | < 0.5 | 0.00141 | 0.522 | 10 to 100 | 0.00136 | < 0.5 | 10 to 100 | < 1 | 1 to 10 | – | – | – | – | – | – | CCn1c(C(N)=O)cc2c1-c1ccncc1O[C@@H]2C1CCCCC1 (single isomer, unassigned) [Example 90]
2 | – | – | 5.76 | – | 0.281 | – | – | – | – | 0.5 to 10 | 0.5 to 10 | – | – | – | – | NC(=O)c1cc2c([nH]1)-c1ccncc1O[C@@H]2C1CCOCC1 (single isomer, unassigned) [Example 71]
3 | – | 0.0115 | 0.182 | – | 0.00464 | – | – | – | – | < 0.5 | < 0.5 | – | – | – | – | COCCn1c(C(N)=O)cc2c1-c1ccncc1OC2(C)C [Example 45]
4 | < 0.5 | 0.00458 | 0.0128 | – | 0.00219 | < 0.5 | – | – | – | – | – | 1 to 10 | 1 to 10 | < 1 | < 1 | CCn1c(C(N)=O)cc2c1-c1ccncc1OC21CCOCC1 [Example 82]
5 | < 0.5 | 0.148 | 0.0421 | – | 0.00141 | < 0.5 | – | – | – | – | – | 1 to 10 | 1 to 10 | < 1 | < 1 | NC(=O)c1cc2c(n1CCF)-c1ccncc1OC21CCCCC1 [Example 84]
6 | < 0.5 | – | 0.0165 | – | 0.301 | – | – | – | – | – | < 0.5 | 1 to 10 | 1 to 10 | < 1 | < 1 | CCn1c(C(N)=O)cc2c1-c1ccncc1OC21CCNCC1 [Example 91]

Row | SMILES | EC50 [1] [µM] | IC50 [2] [µM] | IC50 [3] [µM] | GI50 [4] [µM] | IC50 [5] [µM] | EC50 [6] [µM] | GI50 [7] [µM] | GI50 [8] [µM] | GI50 [9] [µM] | EC50 [10] [µM] | EC50 [11] [µM] | GI50 ([4]; Homo sapiens, MDA-MB-231) [µM] | GI50 ([7]; Homo sapiens, SW-620) [µM] | GI50 ([8]; Homo sapiens, MV4-11) [µM] | GI50 ([9]; Homo sapiens, MOLM-13) [µM]
7 | CCn1c(C(N)=O)cc2c1-c1ccncc1OC21CCN(CC(F)(F)F)CC1 [Example 79] | < 0.5 | 0.00314 | 0.0386 | – | 0.00111 | < 0.5 | – | – | – | – | – | 1 to 10 | 1 to 10 | < 1 | < 1
